Literature values in publication PMC6673652 (Nature protocols, 2018).
Read-outs that look alike come from different tables or passages of the source.

Tests used:
[1] = Cy5.5-labeled peptide, 5 μM, 3 hrs, previously tested

| Compound | BBB organoid permeability (BBB organoids) | BBB penetration in vivo (in vivo) | also measured |
| --- | --- | --- | --- |
| Nc1cc(C(F)(F)F)c(-c2cc(N3CCOCC3)nc(N3CCOCC3)n2)cn1 [BKM120] | – | – | BBB crossing as known from literature: known to cross the BBB |
| CC(C)(C)c1nc(-c2cccc(NS(=O)(=O)c3c(F)cccc3F)c2F)c(-c2ccnc(N)n2)s1 [Dabrafenib] | – | – | BBB penetration as known from literature: limited BBB penetration |
| TFFYGGSRGKRNNFKTEEY [Angiopep-2] | High | Yes[6],[29] | BBB crossing as known from literature (in vivo): known to cross the BBB via receptor mediated transcytosis |
| ZAGYLLGKINLKALAALAKKIL [Transportan 10] | – | – | BBB organoid permeability (BBB organoids; [1]): High |
| ZPLSSIFSRIGDP [PreS2-TLM] | – | – | BBB organoid permeability (BBB organoids; [1]): High |
| ZPPRPPRPPR [(PPR)3] | High | – | – |
| ZPPRPPRPPRPPRPPR [(PPR)5] | High | – | – |
| ZRGGRLSYSRRRFSTSTGR [SynB1] | – | Yes [31] | – |
| ZRKKRRQRRR [HIV-1 Tat] | – | – | BBB organoid permeability (BBB organoids; [1]): High; BBB penetration in vivo: Yes [31] |
| ZRQIKIWFQNRRMKWKK [Penetratin] | High | Yes [31] | – |
| ZRQVTIWFQNRRVKEKK [HoxA-13] | Very high | Yes [6] | – |
| ZRRRRRRRR [Polyarginine] | High | – | – |
| ZSQIKIWFQNKRAKIKK [Engrailed-2] | Very high | – | – |
| ZVELPPPVELPPPVELPPP [SAP(E)] | High | – | – |
| ZVPALR [Bip(1)] | Very high | Yes [6] | – |
| ZVRLPPPVRLPPPVRLPPP [SAP] | High | – | – |
| ZVSALK [Bip(2)] | Very high | Yes [6] | – |

Continued, in another order:

| BBB organoid permeability (BBB organoids) | BBB penetration in vivo (in vivo) | Compound | also measured |
| --- | --- | --- | --- |
| High | – | ZHARIKPTFRRLKWKYKGKFW [L-2] | – |
| High | – | ZKGTYKKKLMRIPLKGT [SVM3] | – |
| Very high | Yes [6] | ZLRRERQSRLRRERQSR [DPV15] | – |
| High | – | ZLYKKGPAKKGRPPLRGWFH [SVM4] | – |
| High | – | ZVKRGLKLRHVRPRVTRMDV [DPV1047] | – |
